According to patent publication US6111145A, “Cyclopentenone derivative” (Takara Shuzo Company, priority 1997, dated 2000):

Legend:
topoisomerase II = topoisomerase II (Homo sapiens, UniProt P11388); assay: Topoisomerase II inhibition, pBR322 DNA relaxation by agarose gel electrophoresis; type: biochemical
Method: (1) One μl of 0.25 μg/μl pBR322 DNA (manufactured by Takara Shuzo) was added to a mixture of 2 μl of topoisomerase II (manufactured by TopoGEN, 2 units/μl), 2 μl of a buffer with a ten-fold diluted concentration [0.5M Tris-HCl (pH 8.0), 1.2M KCl, 0.1M MgCl2, 5 mM adenosine triphosphate and 5 mM dithiothreitol], 2 μl of 0.1% bovine serum albumin (manufactured by Takara Shuzo), 11 μl of distilled water and 2 μl of distilled water (a control) or 4,5-di-tert-butylcyclopentenone ether prepared into various concentrations by water and made to react at 37° C. After the reaction for 30 minutes, the reaction was stopped by adding 2 μl aqueous solution of 1% sodium dodecylsulfate, 50% glycerol and 0.02% Bromophenol Blue.
The above reaction solution (20 μl) was applied to 1% agarose gel prepared from agarose L03 (manufactured by Takara Shuzo) and TAE buffer [40 mM Tris, 5mM sodium acetate and 1 mM disodium ethylenediaminetetraacetate (EDTA); adjusted to pH 7.8 with acetic acid] and electrophoresis was conducted in the TAE buffer. After the electrophoresis, the gel was dipped in an aqueous solution of 1 μg/ml ethidium bromide and irradiated with ultraviolet ray to observe the electrophoretic pattern of DNA.

[1] = parameters: species or system mice; conditions: mouse, in vivo, 300 mg/kg
[2] = test system: carrageenan-induced pedal edema; assay: Carrageenan-induced pedal edema model; type: in vivo; conditions: Lewis rats, oral 1 or 10 mg/kg in olive oil 0.5 hour before carrageenan, paw volume after three hours
Method: Lewis rats (male; nine weeks age; body weight: about 250 g) were purchased from Seakku-Yoshitomi and the inflammation models such as carrageenan-induced pedal edema model (a model of rheumatoid arthritis) were prepared as follows whereby the tested substances were evaluated.
Thus, 4-tert-butylcyclopentenone ether or 4,5-di-tert-butylcyclopentenone ether in various concentrations by dissolving in olive oil (manufactured by Nacalai Tesque) was orally administered at the dose of 1 mg/10 ml/kg or 10 mg/10 ml/kg to rats which were fasted for 18 hours before initiation of the experiment.
After 0.5 hour from administration of these test drugs, 100 μl/rat of 1% suspension of carrageenan (manufactured by Wako) in a physiologically saline solution (manufactured by Otsuka Pharmaceutical) was injected to right paw to induce pedal edema. After three hours from the carrageenan injection, volume of right paw of the rat was measured by a pedal volume measuring device (manufactured by UGO BASILE). Incidentally, the measured value was expressed by calculating the increasing rate from the right paw volume of each rat measured before the carrageenan administration.

[3] = test system: Promyelocytic leukemia cell strain HL-60 (ATCC CCL-240); assay: Growth of HL-60 cells, MTT method with microscopic observation; type: cell-based, human; conditions: HL-60, at the concentration completely suppressing growth
Method: (1) A 1.22, 2.44, 4.88, 9.77, 19.5, 39.1, 78.1, 156, 313, 625, 1250, 2500, 5000 or 10000 μg/ml solution (10 μl) (in 70% aqueous solution of ethanol) of 4-benzylcyclopentenone ether, 5-benzylcyclopentenone ether or 4,5-dibenzylcyclopentenone ether or a 70% aqueous solution of ethanol as a control (10 μl) was added to each well of a 96-well microtiter plate followed by drying with air. Promyelocytic leukemia cell strain HL-60 (ATCC CCL-240) was suspended in an RPMI 1640 medium containing 10% of fetal calf serum to an extent of 1×10^5 cells/ml, each 100 μl thereof was poured into each well of the above microtiter plate and incubated at 37° C. for 48 hours in the presence of 5% of CO2. Incubation was continued for four hours more after addition of 10 μl of a solution (5 mg/ml) of 3-(4,5-dimethylthiazol-2-yl)-2,5-diphenyltetrazolium bromide (MTT; manufactured by Sigma) in a phosphate-buffered aqueous saline solution and then the state of growth of the cells was observed under a microscope. Further, 100 μl of 2-propanol containing 0.04N HCl was added thereto followed by well stirring and the absorbance at 590 nm was measured.
(2) Influence of 4-tert-butylcyclopentenone ether, 5-tert-butylcyclopentenone ether or 4,5-di-tert-butylcyclopentenone ether to the growth of HL-60 cells was measured by the same method as in Example 2-(1).

topoisomerase II, sequence (P11388 whole entry): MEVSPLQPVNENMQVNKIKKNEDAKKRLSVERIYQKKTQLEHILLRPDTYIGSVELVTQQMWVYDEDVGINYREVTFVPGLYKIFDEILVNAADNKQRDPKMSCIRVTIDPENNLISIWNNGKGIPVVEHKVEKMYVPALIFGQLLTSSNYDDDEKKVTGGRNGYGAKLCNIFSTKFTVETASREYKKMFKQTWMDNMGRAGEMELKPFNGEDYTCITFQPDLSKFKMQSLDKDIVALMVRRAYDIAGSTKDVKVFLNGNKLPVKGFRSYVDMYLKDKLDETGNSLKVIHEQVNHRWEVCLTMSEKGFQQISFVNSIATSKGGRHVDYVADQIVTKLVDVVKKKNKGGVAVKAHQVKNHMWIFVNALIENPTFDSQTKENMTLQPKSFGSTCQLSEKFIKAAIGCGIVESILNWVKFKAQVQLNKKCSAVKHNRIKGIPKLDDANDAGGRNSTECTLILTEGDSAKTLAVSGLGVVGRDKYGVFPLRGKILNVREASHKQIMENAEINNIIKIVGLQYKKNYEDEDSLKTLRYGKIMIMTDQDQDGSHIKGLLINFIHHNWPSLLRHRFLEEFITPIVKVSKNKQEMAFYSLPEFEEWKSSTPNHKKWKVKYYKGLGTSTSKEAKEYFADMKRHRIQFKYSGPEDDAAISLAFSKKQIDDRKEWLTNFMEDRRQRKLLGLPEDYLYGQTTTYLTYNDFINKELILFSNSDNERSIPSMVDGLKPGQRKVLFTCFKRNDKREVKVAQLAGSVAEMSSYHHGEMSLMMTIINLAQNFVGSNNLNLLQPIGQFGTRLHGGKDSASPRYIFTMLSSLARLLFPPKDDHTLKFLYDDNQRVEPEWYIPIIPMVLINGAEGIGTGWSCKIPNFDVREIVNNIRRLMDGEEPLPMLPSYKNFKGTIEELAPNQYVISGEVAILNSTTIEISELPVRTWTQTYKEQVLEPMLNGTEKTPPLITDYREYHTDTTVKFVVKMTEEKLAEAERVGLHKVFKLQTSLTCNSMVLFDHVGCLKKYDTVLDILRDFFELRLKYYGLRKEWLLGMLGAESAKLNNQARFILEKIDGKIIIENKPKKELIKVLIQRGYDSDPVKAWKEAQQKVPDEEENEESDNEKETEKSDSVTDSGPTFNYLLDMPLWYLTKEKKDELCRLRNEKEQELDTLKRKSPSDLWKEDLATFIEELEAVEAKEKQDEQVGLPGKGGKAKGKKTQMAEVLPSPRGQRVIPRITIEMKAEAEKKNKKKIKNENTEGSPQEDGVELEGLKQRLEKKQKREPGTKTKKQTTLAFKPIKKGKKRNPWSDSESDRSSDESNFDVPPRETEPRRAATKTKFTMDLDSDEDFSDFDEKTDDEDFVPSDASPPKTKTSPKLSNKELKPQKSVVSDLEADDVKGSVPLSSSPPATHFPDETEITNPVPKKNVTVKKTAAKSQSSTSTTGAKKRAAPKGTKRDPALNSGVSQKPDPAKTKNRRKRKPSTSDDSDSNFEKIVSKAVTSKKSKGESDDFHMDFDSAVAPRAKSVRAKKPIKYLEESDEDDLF

| Structure (SMILES) | death after single oral administration [1] | suppressing action to edema induced by carrageenan (increasing rate of pedal edema) [2] | formation of apoptic body [3] | further results |
| --- | --- | --- | --- | --- |
| CC(C)(C)O[C@@H]1C(=O)C=C[C@H]1OC(C)(C)C (relative stereo) [4,5-di-tert-butylcyclopentenone ether] | no dead case was noted | showed an suppressing action to edema | – | superhelix DNA remaining (topoisomerase II; 250 μM in the reaction solution): the superhelix DNA remained to an medium extent; superhelix DNA remaining (topoisomerase II; 500 μM in the reaction solution): most of the superhelix DNA remained; superhelix DNA remaining (topoisomerase II; 1000 μM in the reaction solution): the superhelix DNA did not decrease at all; concentration in the reaction solution showing topoisomerase suppressing activity (topoisomerase II; pBR322 DNA, 37° C., 30 minutes): not less than 250 μM |
| O=C1C=C[C@@H](OCc2ccccc2)[C@@H]1OCc1ccccc1 (relative stereo) [4,5-dibenzylcyclopentenone ether] | – | – | Formation of apoptic body was noted | – |
| O=C1C=C[C@@H](OCc2ccccc2)[C@@H]1O (relative stereo) [4-benzylcyclopentenone ether] | – | – | Formation of apoptic body was noted | – |
| CC(C)(C)O[C@@H]1C=CC(=O)[C@H]1O (relative stereo) [4-tert-butylcyclopentenone ether] | no dead case was noted | showed an suppressing action to edema | – | – |
| O=C1C=C[C@@H](O)[C@@H]1OCc1ccccc1 (relative stereo) [5-benzylcyclopentenone ether] | – | – | Formation of apoptic body was noted | – |
